Source: US8124637B2, “Anthra [1, 2-d]imidazole-6,11-dione derivatives, preparation method and application thereof” (National Defense Medical Center, priority 2010, dated 2012)

Tests used:
[1] = system: A549/ATCC; assay: NCI 60-cell drug screen, one dose; assay type: cell-based, human; details: Non-Small Cell Lung Cancer A549/ATCC, 1.00E−5 Molar
In short: (§1)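 Growth-inhibiting ability or cell toxicity was judged from cellular protein levels, determined by sulforhodamine B colorimetry once cells had been exposed to drug for 48 hours at a single concentration.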

[2] = system: SF-295; assay: NCI 60-cell drug screen, one dose; assay type: cell-based, human; details: CNS Cancer SF-295, 1.00E−5 Molar
In short: as §1

[3] = system: OVCAR-3; assay: NCI 60-cell drug screen, one dose; assay type: cell-based, human; details: Ovarian Cancer OVCAR-3, 1.00E−5 Molar
In short: as §1

[4] = system: HCC-2998; assay: NCI 60-cell drug screen, one dose; assay type: cell-based, human; details: Colon Cancer HCC-2998, 1.00E−5 Molar
In short: as §1

[5] = system: OVCAR-8; assay: NCI 60-cell drug screen, one dose; assay type: cell-based, human; details: Ovarian Cancer OVCAR-8, 1.00E−5 Molar
In short: as §1

[6] = system: HL-60(TB); assay: NCI 60-cell drug screen, one dose; assay type: cell-based, human; details: Leukemia HL-60(TB), 1.00E−5 Molar
[7] = system: PC-3; assay: NCI 60-cell drug screen, one dose; assay type: cell-based, human; details: Prostate Cancer PC-3, 1.00E−5 Molar
In short: as §1

[8] = system: NCI-H226; assay: NCI 60-cell drug screen, one dose; assay type: cell-based, human; details: Non-Small Cell Lung Cancer NCI-H226, 1.00E−5 Molar
In short: as §1

[9] = system: HCT-116; assay: NCI 60-cell drug screen, one dose; assay type: cell-based, human; details: Colon Cancer HCT-116, 1.00E−5 Molar
In short: as §1

[10] = system: MALME-3M; assay: NCI 60-cell drug screen, one dose; assay type: cell-based, human; details: Melanoma MALME-3M, 1.00E−5 Molar
In short: as §1

[11] = system: NCI/ADR-RES; assay: NCI 60-cell drug screen, one dose; assay type: cell-based, human; details: Ovarian Cancer NCI/ADR-RES, 1.00E−5 Molar
In short: as §1

[12] = system: U251; assay: NCI 60-cell drug screen, one dose; assay type: cell-based, human; details: CNS Cancer U251, 1.00E−5 Molar
In short: as §1

[13] = system: HCT-15; assay: NCI 60-cell drug screen, one dose; assay type: cell-based, human; details: Colon Cancer HCT-15, 1.00E−5 Molar
In short: as §1

[14] = system: COLO 205; assay: NCI 60-cell drug screen, one dose; assay type: cell-based, human; details: Colon Cancer COLO 205, 1.00E−5 Molar
In short: as §1

[15] = system: MOLT-4; assay: NCI 60-cell drug screen, one dose; assay type: cell-based, human; details: Leukemia MOLT-4, 1.00E−5 Molar
In short: as §1

[16] = system: LOX IMVI; assay: NCI 60-cell drug screen, one dose; assay type: cell-based, human; details: Melanoma LOX IMVI, 1.00E−5 Molar
In short: as §1

[17] = system: SK-MEL-2; assay: NCI 60-cell drug screen, one dose; assay type: cell-based, human; details: Melanoma SK-MEL-2, 1.00E−5 Molar
In short: as §1

[18] = system: hTERT promoter (PhTERT) expression; assay: SEAP assay (PhTERT-SEAP reporter, H1299); assay type: cell-based, human; details: Homo sapiens, NCI-H1299, PhTERT-SEAP (H1299)
In short: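 Stable H1299 clones carrying the hTERT promoter (−3338 to +1) driving SEAP were treated with varying drug amounts for 24 h at 37° C. Heat-treated media (65° C, 10 min) were assayed with 12 mM p-nitrophenyl phosphate in diethanolamine buffer; rate of A405 increase gave SEAP activity.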

[19] = MTT assay (relative cell survival), H1299; details: human, H1299 non-small cell lung cancer cells (PhTERT-SEAP), Relative MTT viability (%)
[20] = system: UACC-257; assay: NCI 60-cell drug screen, one dose; assay type: cell-based, human; details: Melanoma UACC-257, 1.00E−5 Molar
[21] = system: CAKI-1; assay: NCI 60-cell drug screen, one dose; assay type: cell-based, human; details: Renal Cancer CAKI-1, 1.00E−5 Molar
[22] = system: 60 kinds of different human cancer cells; assay: NCI 60-cell drug screen, one dose, whole panel; assay type: cell-based; details: mean over the tested cell lines, 1.00E−5 Molar
Protocol: In brief, cellular protein levels were determined after 48 hours of drug exposure by sulforhodamine B colorimetry.
The screening system in United State National Cancer Institute (NCI) consists of 60 kinds of different human cancer cells, which can be used to assay the growth-inhibiting ability or cell toxicity of a compound against various cancer and tumor at a certain concentration. The NCI had selected 6 compounds synthesized above, and performed cell toxicity assay against 60 kinds of cancer cell strains (Table 2) (DTP Human Tumor Cell Line Screen), in which each compound was assayed at a certain concentration to observe its inhibition ability or cell toxicity against various kinds of cancer and tumor.

[23] = system: K562; assay: NCI 60-cell drug screen, one dose; assay type: cell-based, human; details: Leukemia K562, 1.00E−5 Molar

Question: With O=C1c2ccccc2C(=O)c2c1ccc1nc(CN3CCN(c4ccccn4)CC3)[nH]c21 [CL28, 2-((4-(pyridin-2-yl)piperazin-1-yl)methyl)-1H-anthra[1,2-d]imidazole-6,11-dione] as the compound, how does the “Growth Percent” value [1] read?
Answer: 91.07%

Question: And the “Growth Percent” value [2]?
Answer: 92.70%

Question: What about the “Growth Percent” value [3] of the same compound?
Answer: 88.67%

Question: What about the “Growth Percent” value [4] of the same compound?
Answer: 92.28%

Question: And the “Growth Percent” value [5]?
Answer: 88.07%

Question: What about the “Growth Percent” value [6] of the same compound?
Answer: 97.31%

Question: What about the “Growth Percent” value [7] of the same compound?
Answer: 89.10%

Question: And the “Growth Percent” value [8]?
Answer: 91.88%

Question: What about the “Growth Percent” value [9] of the same compound?
Answer: 84.30%

Question: What about the “Growth Percent” value [10] of the same compound?
Answer: 124.77%

Question: And the “Growth Percent” value [11]?
Answer: 81.16%

Question: What about the “Growth Percent” value [12] of the same compound?
Answer: 86.28%

Question: And the “Growth Percent” value [13]?
Answer: 86.02%

Question: And the “Growth Percent” value [14]?
Answer: 110.79%

Question: And the “Growth Percent” value [15]?
Answer: 61.76%

Question: And the “Growth Percent” value [16]?
Answer: 82.25%

Question: And the “Growth Percent” value [17]?
Answer: 98.34%

Question: And the activity at 1 µM ([18]; 1 μM, read-out: Relative SEAP activity (%))?
Answer: 91.2 ± 2.69%

Question: What about the activity at 10 µM ([18]; 10 μM, read-out: Relative SEAP activity (%) (converted)) of the same compound?
Answer: 57.1%

Question: What about the activity at 100 µM ([18]; 100 μM, read-out: Relative SEAP activity (%) (converted)) of the same compound?
Answer: 1.12%

Question: And the viability at 72 h, 1 µM ([19]; 1 μM)?
Answer: 90.5 ± 4.34%

Question: And the viability at 72 h, 10 µM ([19]; 10 μM)?
Answer: 69.5%

Question: And the viability at 72 h, 100 µM ([19]; 100 μM)?
Answer: 19.8%

Question: What about the “Growth Percent” value [20] of the same compound?
Answer: 88.91%

Question: What about the “Growth Percent” value [21] of the same compound?
Answer: 68.83%

Question: And the “Growth Percent, Mean” value [22]?
Answer: 87.65%

Question: What about the “Growth Percent” value [23] of the same compound?
Answer: 83.48%
